Data from patent publication US10421743B2, “Tetrahydroisoquinolines as PRMT5 inhibitors” (CTXT PTY LTD, priority 2016, dated 2019).
pEC50, pIC50: −log10 of the molar value. Where two headings read alike, the source gives them in different places.

Columns and labels:
[1] = target: Full-length (FL)-PRMT5-MEP50 enzyme complex (Homo sapiens (Human), UniProt O14744); assay: PRMT5-MEP50 Enzyme Methylation Assay (SAMDI); assay type: biochemical; conditions: 0.5 nM PRMT5-MEP50, 75 nM biotinylated H4R3(Me1) peptide, 15 μM SAM, 150 minutes at 37° C.; for EC50: Enzyme Methylation Assay (EC50—1, nM)
Sequence of Full-length (FL)-PRMT5-MEP50 enzyme complex (O14744 whole entry): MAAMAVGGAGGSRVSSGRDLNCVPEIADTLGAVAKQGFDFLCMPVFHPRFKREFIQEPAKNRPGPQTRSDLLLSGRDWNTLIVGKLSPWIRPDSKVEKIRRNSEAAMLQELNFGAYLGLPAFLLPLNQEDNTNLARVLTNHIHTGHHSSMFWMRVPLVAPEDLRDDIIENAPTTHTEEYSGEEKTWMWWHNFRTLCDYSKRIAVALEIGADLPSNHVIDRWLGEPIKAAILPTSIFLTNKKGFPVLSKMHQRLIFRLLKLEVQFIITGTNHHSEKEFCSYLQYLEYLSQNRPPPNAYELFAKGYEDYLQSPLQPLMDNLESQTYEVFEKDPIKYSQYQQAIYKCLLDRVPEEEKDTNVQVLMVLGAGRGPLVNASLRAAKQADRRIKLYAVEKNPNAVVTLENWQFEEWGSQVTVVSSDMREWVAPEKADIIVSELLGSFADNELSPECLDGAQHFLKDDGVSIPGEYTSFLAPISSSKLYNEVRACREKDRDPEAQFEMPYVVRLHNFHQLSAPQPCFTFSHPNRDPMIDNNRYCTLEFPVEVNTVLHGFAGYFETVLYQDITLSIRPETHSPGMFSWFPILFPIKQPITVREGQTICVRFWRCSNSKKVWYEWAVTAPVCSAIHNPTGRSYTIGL
Sequence of Full-length (FL)-PRMT5-MEP50 enzyme complex (Q9BQA1 whole entry partner): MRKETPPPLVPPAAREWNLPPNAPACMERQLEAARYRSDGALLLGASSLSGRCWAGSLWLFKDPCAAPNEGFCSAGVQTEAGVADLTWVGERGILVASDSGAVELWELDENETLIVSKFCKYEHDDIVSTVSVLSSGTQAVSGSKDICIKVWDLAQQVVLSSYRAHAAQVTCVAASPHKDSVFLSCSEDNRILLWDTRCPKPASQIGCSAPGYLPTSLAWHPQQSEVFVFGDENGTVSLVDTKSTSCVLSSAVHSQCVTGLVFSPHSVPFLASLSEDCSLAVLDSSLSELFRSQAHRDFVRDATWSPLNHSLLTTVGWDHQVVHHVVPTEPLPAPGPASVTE
Method: PRMT5-MEP50 Enzyme Methylation Assay
PRMT5/MEP50 biochemical assay is a direct measurement of the methylation activity of the enzyme complex on a short peptide substrate derived from the N-terminus of H4 histone. Methylation experiment is performed with recombinant protein. The assessment of inhibitory effect (IC50) of small molecules is measured by the effectiveness of the compounds to inhibit this reaction.
In this assay, the potency (IC50) of each compound was determined from a twenty-point (1:2 serial dilution; top compound concentration of 100000 nM) titration curve using the following outlined procedure. To each well of a white ProxiPlus 384 well-plate, 100 nL of compound (1% DMSO in final assay volume of 10 μL) was dispensed, followed by the addition of 8 μL of 1× assay buffer (50 mM Bicine pH 8.0, 1 mM DTT, 0.004% Tween20, 0.01% BSA) containing 0.5 nM of Full-length (FL)-PRMT5-MEP50 enzyme complex (recombinant proteins from baculovirus-transfected Sf21 cells: FL-PRMT5; MW=[…] and FL-MEP50; MW=38614). Plates were sealed and placed in a 37° C. humidified chamber for 30 minutes pre-incubation with compounds. Subsequently, each reaction was initiated by the addition of 2 μL 1× assay buffer containing 75 nM biotinylated H4R3(Me1) peptide, and 15 μM S-(5′-Adenosyl)-L-Methionine Chloride (SAM). The final reaction in each well of 10 μL consists of 0.5 nM PRMT5-MEP50,75 nM biotinylated-peptide, and 15 μM SAM. Methylation reactions were allowed to proceed for 150 minutes in a sealed plate at 37° C. Reactions were immediately quenched by the addition of 1 μL of 10% formic acid. Plates were then frozen and shipped to SAMDI™ Tech Inc. to determine the percent conversion from […]. IC50 values were determined by 7 parameters biphasic fit model plotting the percent product conversion vs. (Log10) compound concentrations.

[2] = tested on: PRMT5 (symmetric dimethylation of arginine (SDMA) in MCF-7 cells); assay: PRMT5 Cell Target Engagement (TE) Assay (SDMA, high content imaging); assay type: cell-based; conditions: Homo sapiens, MCF7, 72 h, treated for 3 days, top compound concentration of 10000 nM
From the text: PRMT5 Cell Target Engagement (TE) Assay
The PRMT5 TE assay is a biomarker assay for identifying compounds that inhibit symmetric dimethylation of arginine (SDMA) of PRMT5 substrates. This assay detects symmetrically dimethylated nuclear proteins using high content imaging technology. Detection of the expression of symmetrically dimethylated nucleo proteins is through a mixture of primary rabbit monoclonal antibodies to SDMA (CST 13222), which in turn recognized by an Alexafluor 488 dye-conjugated anti-rabbit IgG secondary antibody. The IN Cell Analyzer 2200 measures nuclear Alexafluor 488 fluorescent dye intensity that is directly related to the level of expression of symmetrically dimethylated nuclear proteins at the single cell level. Nuclear AF488 dye intensities are compared to the mean value for DMSO treated cells […] to report percent of inhibition for each compound-treated well.
In this assay, the cell potency (EC50) of each compound was determined from a ten point (1:3 serial dilution; top compound concentration of 10000 nM) titration curve using the following outlined procedure. Each well of a BD falcon collagen coated black/clear bottom 384-well plate was seeded with 4000 MCF-7 cells and allowed to attach for 5 hours. Media from cell plate was removed at 0.5 mm above the bottom of the plate and replaced with 30 μL of fresh media containing 1.2× compounds in 0.1% DMSO. Cells were treated for 3 days in 37° C. CO2 incubator. On day 3, cells were fixed with Cytofix, permeabilized with 0.4% Triton-X-100/Cytofix, and washed with D-PBS without Ca/Mg. Cells were blocked with Licor Odessey blocking reagent for one hour at room temperature, followed by incubation with anti-SDMA (1:1000) antibody at 4° C. overnight. 1° antibody was removed, followed by three washings with DPBS without Ca/Mg and 0.05% Tween20. Hoechst (5 μg/ml), Cell Mask deep stain (1:2000) and Alexa488-conjugated goat anti-rabbit IgG (2 μg/mL) was added for 1 hour at room temperature. A final washing step (three washes) was performed before sealing plate for imaging on In Cell Analyzer 2200. Images from analyzer were uploaded to Columbus (at WP) for image analysis. IC50 values were determined by 4 parameters robust fit of percent fluorescence units vs. (Log10) compound concentrations.

[3] = tested on: PRMT5 (symmetrical dimethylation of arginine in TE11 cells); assay: PRMT5 Biomarker Assay (symmetrical dimethylation of arginine, Di-Methyl Histone H4 Arginine 3); assay type: cell-based; conditions: Homo sapiens, TE-11, 72 hours incubation, anti-Di-Methyl Histone H4 Arginine 3 antibody
Method: Compounds of the Invention may be Tested for Potency to Inhibit Symmetrical Dimethylation of Arginine in the Following Assay:
The cell line TE11 was seeded at a density of 6,000 cells per well in 96 well optical quality tissue culture plates in DME medium and 10% foetal bovine serum, and allowed to adhere for 5 hours under standard culture conditions (37 degree Celsius, 5% CO2). Compound dilutions prepared in DMSO were added to the medium, with negative control wells reserved for treatment with DMSO only and maximum inhibition controls receiving a potent PRMT5 inhibitor compound at 1 μM concentration. After incubation for 72 hours, the cells were fixed with 3.7% formaldehyde in PBS for 30 minutes at room temperature, washed with phosphate buffer saline and blocked with Odyssey blocking buffer (LI-COR, Lincoln, Nebr.). Rabbit anti-Di-Methyl Histone H4 Arginine 3 specific antibody (Epigentek) in Odyssey blocking buffer was added and incubated for 14 hours at 4 degree Celsius. After washing, anti-rabbit secondary antibody labelled with Alexa647 dye (LifeTechnologies) and Hoechst 33342 (1 μg/mL, SigmaAldrich) were added for 1 hour incubation. Plates were washed and read on a PerkinElmer Envision 2103 in fluorescence intensity scanning mode (24 scans across the well area). The plates were imaged on a PerkinElmer Phenix high content imaging platform. Using a Columbus image analysis pipeline, individual nuclei were located by Hoechst 33342 stain and the methylation level was calculated from the Alexa647-related intensity in the same area. IC50 values were obtained from the mean Alexa647-related intensity per cell by calculating percent inhibition (% I) for each well relative to controls on the same plate (% I=(I−CN)/(CP−CN) where CN/CP are the averages of the negative/maximum inhibition controls, respectively), then fitting the % I data vs. compound concentration [I] to % I=(A+((B−A)/(1+((C/[I])^D)))) where A is the lower asymptote, B is the upper asymptote, C is the IC50 value, and D is the slope.

[4] = target: Full-length PRMT5 enzyme co-expressed with His6-MEP50 (Homo sapiens (Human), UniProt O14744); assay: PRMT5 Biochemical Assay (Transcreener EPIGEN methyltransferase, fluorescence polarisation); conditions: histone H4 derived peptide substrate 1 μM, 1 μM S-Adenosyl methionine, 4 hours at 37 degree Celsius
Sequence of Full-length PRMT5 enzyme co-expressed with His6-MEP50 (O14744 whole entry): as the sequence (O14744 whole entry) above
Sequence of Full-length PRMT5 enzyme co-expressed with His6-MEP50 (Q9BQA1 whole entry partner): as the sequence (Q9BQA1 whole entry partner) above
Method: Compounds of the Invention may be Tested for In Vitro Activity in the Following Assay:
A histone H4 derived peptide is used as substrate (amino acid sequence: […]NH2). Full-length PRMT5 enzyme (NCBI Reference sequence NP_006100.2) was co-expressed with His6-MEP50 in insect cells and purified via Nickel immobilized metal affinity and gel filtration chromatography (“the enzyme”).
The 6 μL reactions are run in Greiner brand black 384-well low volume assay plates. All reactions contained assay buffer (phosphate buffered saline, 0.01% (v/v) Tween-20, 0.01% (w/v) albumin from chicken egg white, 1 mM Dithiothreitol, 1 μM peptide substrate, 1 μM S-Adenosyl methionine, and 15 ng/reaction enzyme, with the enzyme being omitted from negative control reactions. Compounds were added in a volume of 100 nL from dilution series prepared in DMSO, positive and negative control reactions receiving the same volume DMSO without compound. The plates were sealed with adhesive seals and incubated for 4 hours at 37 degree Celsius. Reaction progress was measured using the Transcreener™ EPIGEN methyltransferase assay (BellBrook Labs, Madison, Wis.) as recommended by the manufacturer. To each reaction 2 μL detection mix were added, containing coupling enzymes, fluorescence polarisation tracer, and AMP antibody. Plates were incubated for 90 minutes before being read on a Perkin Elmer EnVision™ plate reader in fluorescence polarisation mode. IC50 values were obtained from the raw readings by calculating percent inhibition (% I) for each reaction relative to controls on the same plate (% I=(I−CN)/(CP−CN) where CN/CP are the averages of the negative/positive reactions, respectively), then fitting the % I data vs. compound concentration [I] to % I=(A+((B−A)/(1+((C/[I])^D)))) where A is the lower asymptote, B is the upper asymptote, C is the IC50 value, and D is the slope.

[5] = second EC50 of biphasic fit, read-out: Enzyme Methylation Assay (EC50—2)
[6] = first EC50 of biphasic fit, read-out: Enzyme Methylation Assay (EC50—1)

pEC50 [1, 5]	pEC50 [2]	pEC50 [1, 6]	SMILES	EC50 ([1]; first EC50 of biphasic fit) [nM]	pIC50 [3]	pIC50 [4]
6.05	5.67	8.70	CCOc1cc(-c2nnc(C)o2)ccc1C(=O)NC[C@@H](O)[C@@H]1Cc2ccc(OC)cc2CN1 [Example 5, 2-ethoxy-N-{(2R)-2-hydroxy-2-[(3S)-7-methoxy-1,2,3,4-tetrahydroisoquinolin-3-yl]ethyl}-4-(5-methyl-1,3,4-oxadiazol-2-yl)benzamide]	–	–	–
4.94	5.33	7.49	COc1ccc2c(c1)CN[C@H]([C@H](O)CNC(=O)c1cccnc1)C2 [Example 12]	–	–	–
5.14	5.66	7.64	CC(=O)N1CCC(Nc2cc(C(=O)NC[C@@H](O)[C@@H]3Cc4ccc(C(F)(F)F)cc4CN3)ncn2)CC1 [Example 15]	–	–	–
6.65	7.10	9.21	COc1ccc2c(c1)CN[C@H]([C@H](O)CNC(=O)c1ccc(-c3ncc4n3CCCC4)cc1)C2 [Example 8]	–	–	–
5.07	–	7.68	COc1ccc2c(c1)CN[C@H]([C@H](O)CNC(=O)c1cc(NC3COC3)ncn1)C2 [Example 4, N—((R)-2-hydroxy-2-((S)-7-methoxy-1,2,3,4-tetrahydroisoquinolin-3-yl)ethyl)-6-(oxetan-3-ylamino)pyrimidine-4-carboxamide]	–	–	–
4.46	5.00	6.74	CC(=O)N1CCC(Nc2cc(C(=O)NC[C@@H](O)[C@@H]3Cc4ccc(C#N)cc4CN3)ncn2)CC1 [Example 17]	–	–	–
5.43	6.07	8.15	CCc1ccc2c(c1)CN[C@H]([C@H](O)CNC(=O)c1cc(NC3CCN(C(C)=O)CC3)ncn1)C2 [Example 16]	–	–	–
5.09	5.33	7.68	CCOc1ncccc1C(=O)NC[C@@H](O)[C@@H]1Cc2ccc(OC)cc2CN1 [Example 13]	–	–	–
6.48	7.15	9.25	COc1ccc2c(c1)CN[C@H]([C@H](O)CNC(=O)c1ccc(-c3ncnn3C3CC3)cc1)C2 [Example 9]	–	–	–
5.37	5.49	7.92	COc1ccc2c(c1)CN[C@H]([C@H](O)CNC(=O)c1ccccc1Cl)C2 [Example 14]	–	–	–
6.00	6.78	8.52	COc1ccc2c(c1)CN[C@H]([C@H](O)CNC(=O)c1ccc(-c3nnc(C(C)(C)C)o3)cc1)C2 [Example 7]	–	–	–
6.73	7.72	9.10	COC(=O)N1CCC(Nc2cc(C(=O)NC[C@@H](O)[C@@H]3Cc4ccc(OC)cc4CN3)ccn2)CC1 [Example 18]	–	–	–
6.11	6.69	8.70	CCOc1cc(-c2nnc(C3CC3)o2)ccc1C(=O)NC[C@@H](O)[C@@H]1Cc2ccc(OC)cc2CN1 [Example 6, 4-(5-cyclopropyl-1,3,4-oxadiazol-2-yl)-2-ethoxy-N-{(2R)-2-hydroxy-2-[(3S)-7-methoxy-1,2,3,4-tetrahydroisoquinolin-3-yl]ethyl}benzamide]	–	–	–

SMILES	pEC50 [1, 5]	pEC50 [2]	pEC50 [1, 6]	EC50 ([1]; first EC50 of biphasic fit) [nM]	pIC50 [3]	pIC50 [4]
O=C(NC[C@@H](O)[C@@H]1Cc2ccc(C(F)F)cc2CN1)c1ccc(C(=O)N2C3CCC2COC3)cc1 [Example 11]	6.35	6.87	–	0.93	–	–
COc1ccc2c(c1)CN[C@H]([C@H](O)CNC(=O)c1ccc(C(=O)N3C4CCC3COC4)cc1)C2 [Example 2, 4-(3-Oxa-8-azabicyclo[3.2.1]octane-8-carbonyl)-N—((R)-2-hydroxy-2-((S)-7-methoxy-1,2,3,4-tetrahydroisoquinolin-3-yl)ethyl)benzamide]	6.90	7.77	–	0.62	9.40	7.74
